{"source": "patent US9492471B2", "about": "“Methods of treating a disease or disorder associated with Bruton'S Tyrosine Kinase” (Celgene Avilomics Research, Inc., priority 2013, dated 2016)", "assay_in_all_cases": "HotSpot kinase profiling", "format_in_all_cases": "biochemical", "key": {"Aurora C": {"target": "T1, Aurora C (Homo sapiens, UniProt Q9UQB9)", "T1 construct": "purchased Reaction Biology Corp", "T1 sequence (Q9UQB9 1-309)": "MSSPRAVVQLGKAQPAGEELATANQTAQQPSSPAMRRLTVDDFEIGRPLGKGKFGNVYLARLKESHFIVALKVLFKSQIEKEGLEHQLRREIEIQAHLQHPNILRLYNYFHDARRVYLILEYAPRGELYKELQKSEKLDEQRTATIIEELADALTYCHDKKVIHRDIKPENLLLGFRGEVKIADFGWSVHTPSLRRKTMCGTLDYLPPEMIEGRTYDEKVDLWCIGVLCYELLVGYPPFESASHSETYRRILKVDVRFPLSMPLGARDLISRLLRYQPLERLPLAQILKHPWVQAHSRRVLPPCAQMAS", "in_short": "(§1)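 Radio-isotope P81 filtration format. Substrate + required cofactors in reaction buffer, kinase added, 2 h RT. Stop, wash with 0.1% phosphoric acid, detect. % inhibition vs DMSO; mean of duplicates where repeated.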"}, "COT1/MAP3K8": {"target": "T2, COT1/MAP3K8 (Homo sapiens, UniProt P41279)", "T2 construct": "purchased Reaction Biology Corp", "T2 sequence (P41279 whole entry)": "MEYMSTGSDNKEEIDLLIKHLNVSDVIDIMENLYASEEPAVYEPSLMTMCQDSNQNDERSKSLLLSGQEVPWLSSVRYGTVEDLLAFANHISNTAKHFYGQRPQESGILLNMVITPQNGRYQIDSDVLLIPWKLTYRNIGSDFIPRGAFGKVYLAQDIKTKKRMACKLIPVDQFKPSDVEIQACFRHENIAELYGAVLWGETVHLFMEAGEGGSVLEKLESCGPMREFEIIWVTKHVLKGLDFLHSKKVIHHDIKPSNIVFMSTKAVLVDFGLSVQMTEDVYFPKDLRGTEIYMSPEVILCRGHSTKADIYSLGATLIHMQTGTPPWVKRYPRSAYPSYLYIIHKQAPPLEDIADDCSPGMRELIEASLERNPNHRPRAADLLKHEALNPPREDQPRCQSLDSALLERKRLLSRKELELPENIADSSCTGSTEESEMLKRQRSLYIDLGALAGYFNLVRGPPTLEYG", "in_short": "as §1"}, "STK22D/TSSK1": {"target": "T3, STK22D/TSSK1 (Homo sapiens, UniProt Q9BXA7)", "T3 construct": "purchased Reaction Biology Corp", "T3 sequence (Q9BXA7 1-367)": "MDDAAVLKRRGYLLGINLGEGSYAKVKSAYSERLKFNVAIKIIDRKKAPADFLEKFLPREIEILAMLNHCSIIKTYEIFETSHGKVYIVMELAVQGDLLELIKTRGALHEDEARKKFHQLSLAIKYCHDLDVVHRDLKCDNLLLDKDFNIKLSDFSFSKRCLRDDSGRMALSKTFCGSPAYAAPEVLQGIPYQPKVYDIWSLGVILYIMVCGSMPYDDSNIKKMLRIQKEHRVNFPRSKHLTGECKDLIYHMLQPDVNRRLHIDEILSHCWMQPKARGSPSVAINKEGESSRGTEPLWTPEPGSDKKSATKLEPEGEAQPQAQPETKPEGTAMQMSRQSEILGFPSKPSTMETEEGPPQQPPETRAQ", "in_short": "as §1"}, "TLK2": {"target": "T4, TLK2 (Homo sapiens, UniProt Q86UE8)", "T4 construct": "purchased Reaction Biology Corp", "T4 sequence (Q86UE8 whole entry)": "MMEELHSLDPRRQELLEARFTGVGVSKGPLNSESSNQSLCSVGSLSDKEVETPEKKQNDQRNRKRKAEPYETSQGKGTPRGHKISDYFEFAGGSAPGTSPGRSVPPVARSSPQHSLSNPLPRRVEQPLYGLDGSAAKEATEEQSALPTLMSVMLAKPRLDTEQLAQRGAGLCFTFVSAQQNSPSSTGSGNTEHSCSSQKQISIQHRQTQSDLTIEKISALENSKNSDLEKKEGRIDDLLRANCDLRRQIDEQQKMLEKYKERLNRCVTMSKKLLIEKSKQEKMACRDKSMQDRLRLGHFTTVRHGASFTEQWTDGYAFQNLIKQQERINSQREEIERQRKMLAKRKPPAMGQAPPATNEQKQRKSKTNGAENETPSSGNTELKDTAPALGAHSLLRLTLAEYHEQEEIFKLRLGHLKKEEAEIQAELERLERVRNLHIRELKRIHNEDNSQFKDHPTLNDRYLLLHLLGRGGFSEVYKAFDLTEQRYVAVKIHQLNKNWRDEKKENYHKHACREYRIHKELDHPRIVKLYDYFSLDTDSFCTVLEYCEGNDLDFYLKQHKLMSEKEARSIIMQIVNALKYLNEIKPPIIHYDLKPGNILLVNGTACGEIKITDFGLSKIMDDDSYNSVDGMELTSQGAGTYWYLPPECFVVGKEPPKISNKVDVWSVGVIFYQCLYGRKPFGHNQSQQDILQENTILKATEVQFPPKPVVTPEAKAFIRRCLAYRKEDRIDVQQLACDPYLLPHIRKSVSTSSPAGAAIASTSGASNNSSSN", "in_short": "as §1"}, "TSSK2": {"target": "T5, TSSK2 (Homo sapiens, UniProt Q96PF2)", "T5 construct": "purchased Reaction Biology Corp", "T5 sequence (Q96PF2 1-358)": "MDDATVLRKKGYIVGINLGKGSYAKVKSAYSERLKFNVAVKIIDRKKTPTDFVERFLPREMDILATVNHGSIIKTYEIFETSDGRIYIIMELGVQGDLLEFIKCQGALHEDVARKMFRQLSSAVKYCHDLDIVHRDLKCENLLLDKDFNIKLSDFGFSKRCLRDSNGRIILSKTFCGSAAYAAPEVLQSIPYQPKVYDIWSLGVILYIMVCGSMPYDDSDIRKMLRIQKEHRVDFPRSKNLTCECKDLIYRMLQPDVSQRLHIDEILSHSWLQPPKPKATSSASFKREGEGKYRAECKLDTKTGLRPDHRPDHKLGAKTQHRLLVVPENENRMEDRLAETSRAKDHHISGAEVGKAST", "in_short": "as §1"}, "TSSK3/STK22C": {"target": "T6, TSSK3/STK22C (Homo sapiens, UniProt Q96PN8)", "T6 construct": "purchased Reaction Biology Corp", "T6 sequence (Q96PN8 1-268)": "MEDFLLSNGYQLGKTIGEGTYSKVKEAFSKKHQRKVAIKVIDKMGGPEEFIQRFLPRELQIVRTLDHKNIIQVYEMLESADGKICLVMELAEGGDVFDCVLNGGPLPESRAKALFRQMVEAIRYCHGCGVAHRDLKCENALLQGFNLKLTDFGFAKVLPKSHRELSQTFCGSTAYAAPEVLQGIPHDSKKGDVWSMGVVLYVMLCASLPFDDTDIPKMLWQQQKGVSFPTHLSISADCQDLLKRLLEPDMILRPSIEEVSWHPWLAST", "in_short": "as §1"}, "WNK1": {"target": "T7, WNK1 (Homo sapiens, UniProt Q9H4A3)", "T7 construct": "purchased Reaction Biology Corp", "T7 sequence (Q9H4A3 whole entry)": "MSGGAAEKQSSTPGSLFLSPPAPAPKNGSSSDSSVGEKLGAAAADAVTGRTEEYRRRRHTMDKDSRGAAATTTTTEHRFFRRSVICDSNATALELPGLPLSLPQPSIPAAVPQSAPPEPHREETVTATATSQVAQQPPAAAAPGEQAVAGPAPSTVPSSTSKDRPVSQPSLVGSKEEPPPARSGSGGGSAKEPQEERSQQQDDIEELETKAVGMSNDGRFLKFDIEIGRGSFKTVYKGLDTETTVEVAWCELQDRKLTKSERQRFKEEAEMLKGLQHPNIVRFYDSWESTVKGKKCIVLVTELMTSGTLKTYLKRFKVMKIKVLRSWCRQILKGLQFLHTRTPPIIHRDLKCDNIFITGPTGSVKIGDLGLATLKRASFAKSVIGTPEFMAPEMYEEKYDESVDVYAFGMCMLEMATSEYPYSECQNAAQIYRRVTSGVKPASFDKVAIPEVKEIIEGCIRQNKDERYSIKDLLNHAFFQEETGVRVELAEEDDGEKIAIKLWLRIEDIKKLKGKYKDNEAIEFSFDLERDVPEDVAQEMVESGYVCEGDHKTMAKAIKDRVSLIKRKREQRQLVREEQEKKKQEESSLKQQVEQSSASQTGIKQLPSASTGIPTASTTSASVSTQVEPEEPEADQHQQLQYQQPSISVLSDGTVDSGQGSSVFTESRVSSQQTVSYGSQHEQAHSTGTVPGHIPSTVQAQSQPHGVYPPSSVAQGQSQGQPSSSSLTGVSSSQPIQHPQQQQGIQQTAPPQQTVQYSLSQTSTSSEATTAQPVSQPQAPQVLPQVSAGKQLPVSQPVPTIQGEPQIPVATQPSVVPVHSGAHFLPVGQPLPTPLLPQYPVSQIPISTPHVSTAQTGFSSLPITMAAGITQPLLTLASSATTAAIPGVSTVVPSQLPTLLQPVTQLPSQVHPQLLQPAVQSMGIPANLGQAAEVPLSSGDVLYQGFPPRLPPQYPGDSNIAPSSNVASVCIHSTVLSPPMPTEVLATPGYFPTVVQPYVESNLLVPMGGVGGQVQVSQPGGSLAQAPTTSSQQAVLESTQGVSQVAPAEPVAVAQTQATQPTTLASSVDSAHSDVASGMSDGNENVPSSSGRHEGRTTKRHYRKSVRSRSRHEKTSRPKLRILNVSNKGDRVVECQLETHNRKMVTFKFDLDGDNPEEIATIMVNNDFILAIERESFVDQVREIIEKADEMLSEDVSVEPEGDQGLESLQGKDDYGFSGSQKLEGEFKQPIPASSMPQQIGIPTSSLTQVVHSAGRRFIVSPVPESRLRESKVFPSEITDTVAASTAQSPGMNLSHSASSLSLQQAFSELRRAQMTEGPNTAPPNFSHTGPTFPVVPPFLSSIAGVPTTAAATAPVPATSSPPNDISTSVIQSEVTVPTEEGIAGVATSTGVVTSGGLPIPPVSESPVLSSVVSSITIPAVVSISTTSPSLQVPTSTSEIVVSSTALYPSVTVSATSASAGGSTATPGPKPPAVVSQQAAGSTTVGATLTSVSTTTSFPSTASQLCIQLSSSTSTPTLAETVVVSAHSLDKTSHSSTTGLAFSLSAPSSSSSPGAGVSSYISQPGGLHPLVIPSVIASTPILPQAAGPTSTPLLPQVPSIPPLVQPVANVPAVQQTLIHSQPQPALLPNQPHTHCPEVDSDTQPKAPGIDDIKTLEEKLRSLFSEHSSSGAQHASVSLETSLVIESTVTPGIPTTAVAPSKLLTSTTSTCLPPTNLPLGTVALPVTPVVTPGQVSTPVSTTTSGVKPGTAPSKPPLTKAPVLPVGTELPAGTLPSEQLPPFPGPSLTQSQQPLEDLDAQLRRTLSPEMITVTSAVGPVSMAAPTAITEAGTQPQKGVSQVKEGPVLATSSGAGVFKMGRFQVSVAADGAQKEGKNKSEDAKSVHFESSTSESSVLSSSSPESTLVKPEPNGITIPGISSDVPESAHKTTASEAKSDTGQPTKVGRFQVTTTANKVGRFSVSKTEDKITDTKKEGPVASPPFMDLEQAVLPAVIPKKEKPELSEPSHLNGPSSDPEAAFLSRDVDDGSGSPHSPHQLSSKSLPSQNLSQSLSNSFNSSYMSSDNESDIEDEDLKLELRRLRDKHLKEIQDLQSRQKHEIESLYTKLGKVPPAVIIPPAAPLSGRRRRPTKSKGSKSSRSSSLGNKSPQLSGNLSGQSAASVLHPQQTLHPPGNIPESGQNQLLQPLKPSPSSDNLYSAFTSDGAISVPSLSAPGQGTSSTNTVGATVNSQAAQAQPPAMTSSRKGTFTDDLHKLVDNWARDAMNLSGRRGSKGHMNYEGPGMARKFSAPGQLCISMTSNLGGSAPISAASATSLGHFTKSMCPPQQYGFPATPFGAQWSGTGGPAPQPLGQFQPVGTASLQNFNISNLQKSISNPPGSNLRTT", "in_short": "as §1"}, "[1]": {"conditions": "read-out: % Enzyme Activity (relative to DMSO controls) Run 1"}, "[2]": {"conditions": "read-out: % Enzyme Activity (relative to DMSO controls) Run 2"}}, "note": "Where two headings read alike, the source gives them in different places.", "data": [{"molecule": "C=CC(=O)Nc1cccc(Nc2nc(Nc3ccc(OCCOC)c(F)c3)ncc2F)c1", "note": "[Compound 2]", "values": [{"measurement": "inhibition at 3 µM", "setting": "Aurora C", "value": 72, "unit": "%"}, {"measurement": "remaining activity at 3 µM", "setting": "Aurora C; [1]", "value": 26.2, "unit": "%"}, {"measurement": "remaining activity at 3 µM", "setting": "Aurora C; [2]", "value": 29.8, "unit": "%"}, {"measurement": "inhibition at 3 µM", "setting": "COT1/MAP3K8", "value": -1.33, "unit": "%"}, {"measurement": "remaining activity at 3 µM", "setting": "COT1/MAP3K8; [1]", "value": 102, "unit": "%"}, {"measurement": "remaining activity at 3 µM", "setting": "COT1/MAP3K8; [2]", "value": 101, "unit": "%"}, {"measurement": "inhibition at 3 µM", "setting": "STK22D/TSSK1", "value": 11.1, "unit": "%"}, {"measurement": "remaining activity at 3 µM", "setting": "STK22D/TSSK1; [1]", "value": 88, "unit": "%"}, {"measurement": "remaining activity at 3 µM", "setting": "STK22D/TSSK1; [2]", "value": 89.7, "unit": "%"}, {"measurement": "inhibition at 3 µM", "setting": "TLK2", "value": -6.32, "unit": "%"}, {"measurement": "remaining activity at 3 µM", "setting": "TLK2; [1]", "value": 108, "unit": "%"}, {"measurement": "remaining activity at 3 µM", "setting": "TLK2; [2]", "value": 105, "unit": "%"}, {"measurement": "inhibition at 3 µM", "setting": "TSSK2", "value": 3.36, "unit": "%"}, {"measurement": "remaining activity at 3 µM", "setting": "TSSK2; [1]", "value": 97, "unit": "%"}, {"measurement": "remaining activity at 3 µM", "setting": "TSSK2; [2]", "value": 96.3, "unit": "%"}, {"measurement": "inhibition at 3 µM", "setting": "TSSK3/STK22C", "value": -32.6, "unit": "%"}, {"measurement": "remaining activity at 3 µM", "setting": "TSSK3/STK22C; [1]", "value": 133, "unit": "%"}, {"measurement": "remaining activity at 3 µM", "setting": "TSSK3/STK22C; [2]", "value": 133, "unit": "%"}, {"measurement": "inhibition at 3 µM", "setting": "WNK1", "value": -12.1, "unit": "%"}, {"measurement": "remaining activity at 3 µM", "setting": "WNK1; [1]", "value": 112, "unit": "%"}, {"measurement": "remaining activity at 3 µM", "setting": "WNK1; [2]", "value": 112, "unit": "%"}]}]}
